Measurements from ChEMBL document CHEMBL1143953, “Novel 2-phenylquinolin-7-yl-derived imidazo[1,5-a]pyrazines as potent insulin-like growth factor-I receptor (IGF-IR) inhibitors” (Bioorg Med Chem, 2008).

Target: Cytochrome P450 3A4 (Homo sapiens, UniProt P08684)
Assay: Inhibition of CYP3A4
Assay type: ADME

Sequence of Cytochrome P450 3A4 (P08684 whole entry): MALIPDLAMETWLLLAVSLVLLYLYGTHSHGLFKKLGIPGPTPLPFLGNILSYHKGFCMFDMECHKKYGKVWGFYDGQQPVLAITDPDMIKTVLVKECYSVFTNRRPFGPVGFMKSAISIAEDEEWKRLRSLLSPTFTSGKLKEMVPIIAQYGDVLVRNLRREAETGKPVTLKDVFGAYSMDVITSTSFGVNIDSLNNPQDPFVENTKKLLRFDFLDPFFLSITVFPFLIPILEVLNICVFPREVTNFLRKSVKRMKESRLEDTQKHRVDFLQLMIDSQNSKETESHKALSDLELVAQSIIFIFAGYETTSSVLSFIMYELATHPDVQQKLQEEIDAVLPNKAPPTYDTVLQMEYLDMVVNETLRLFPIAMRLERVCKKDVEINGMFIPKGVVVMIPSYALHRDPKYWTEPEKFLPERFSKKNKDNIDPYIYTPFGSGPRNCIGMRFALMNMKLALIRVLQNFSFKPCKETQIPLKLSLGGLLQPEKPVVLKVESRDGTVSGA

Row | IC50 [µM] | Compound
1 | 15 | CN(C)C[C@H]1C[C@@H](c2nc(-c3ccc4ccc(-c5ccccc5)nc4c3)c3c(N)nccn32)C1
2 | 7.8 | Nc1nccn2c1c(-c1ccc3ccc(-c4ccccc4)nc3c1)nc2[C@H]1C[C@@H](N2CCSCC2)C1
